Test results from patent publication US11499978B2, “Method for measuring quality of therapeutic cell through real-time glutathione measurement” (CELL2IN, INC., priority 2017, dated 2022).

Key:
human dermal fibroblasts = assay: mGSH level in human dermal fibroblasts after RSL3; type: cell-based; conditions: as the subculture continued; confocal imaging
Protocol: As described in the experiment for MSCs, human dermal fibroblasts subcultured several times were treated with RSL3 and the cells were stained with MitoFreSH-Tracer, and a ratio between cells maintaining mGSH and cells not maintaining mGSH was represented as a percentage through confocal imaging.

hUC-MSCs [1] = assay: CD146 surface expression in mGSH High and mGSH Low hUC-MSCs after RSL3; type: cell-based, human; conditions: P4 hUC-MSC group in which mGSH level is lowered by RSL3, compared with mGSH level-maintaining group
From the text: To confirm whether the stem cell function of cells in which an mGSH level decreased is deteriorated under lipid oxidative stress caused by RSL3 treatment, an expression level of CD146, which is a cell surface protein known to be highly expressed in stem cells of high quality according to conventional literature, was confirmed through flow cytometry.
The cells were stained by the same method as a method of measuring a mitochondria GSH level through the flow cytometry described above, and detached from the plate using trypsin. The detached cells were treated with an antibody for flow cytometry with respect to CD146 to which a fluorescent material BUV395 was bound at 4° C. for 30 minutes, and washed with PBS. Using a flow cytometer, F510 and F580 fluorescence values for measuring a GSH level and a BUV395 fluorescence value for measuring CD146 expression were measured. Afterward, based on the point at which the histogram showing the F510/F580 distribution was divided into two peaks, the cells were divided into GSH^High cells (right peak) and GSH^Low cells (left peak) using FlowJo software, and a CD146-positive ratio of the corresponding cells is represented as a percentage (%).

hUC-MSCs [2] = assay: mGSH distribution in hUC-MSCs after RSL3 (MitoFreSH, flow cytometry and confocal imaging); type: cell-based, human; conditions: hUC-MSCs at passage 4, 7 or 15; RSL3 0.1/0.5/1 μM; depending on RSL3 concentration and passage number
Protocol: After the cultured human umbilical cord-derived mesenchymal stem cells (hUC-MSCs) at passage 4, 7 or 15 were treated with various concentrations of RSL3 and stained with MitoFreSH, the distribution pattern of mitochondrial GSH (mGSH) in the cells was confirmed by histograms using flow cytometry and confocal imaging.
hUC-MSCs at passage 4, 7 or 15 were prepared, seeded at 70000 cells/well in a 6-well cell culture plate, and cultured at 37° C. for 24 hours. The medium used in the culture was prepared by adding 10% fetal bovine serum and 1× penicillin-streptomycin to α-MEM. […] The cells detached from the plate were transferred to an FACS tube and stored on ice, and a fluorescence level was measured using a flow cytometer.
hUC-MSCs at passage 4, 7 or 15 were prepared, seeded at 7000 cells/100 μl per well in a 96-well cell culture plate, and cultured at 37° C. for 24 hours. […] To remove MitoFreSH-Tracer from the medium before measurement, the medium was exchanged with fresh 10 mM HEPES-containing HBSS, and fluorescence images were measured using a confocal imaging system, Operetta.
A F510/F580 ratio referring to a GSH mean value in cells was calculated by measuring fluorescence values of F510 (fluorescence value when MitoFreSH-Tracer was bound with SH) and F580 (fluorescence value of MitoFreSH-Tracer, which was not bound with SH) in cells and dividing the F510 value by the F580 value. […]

Question: `COC(=O)c1ccc([C@@H]2c3[nH]c4ccccc4c3C[C@@H](C(=O)OC)N2C(=O)CCl)cc1` [RSL3, 1S,3R-RAS-selective lethal 3] was tested. Which “proportion of cells in which mGSH decreases by treatment with RSL3” value (human dermal fibroblasts) did it give?
Answer: Its value is “increased”.

Question: What about the “lowering of CD146-positive ratio” value (hUC-MSCs [1]) of the same molecule?
Answer: Its value is “approximately 25%”.

Question: What about the mGSH levels (hUC-MSCs [2]) of the same molecule?
Answer: Its mGSH levels is “reduced”.
